The record followed here is ChEMBL document CHEMBL1201862, “PubChem BioAssay data set” (2004).

What all share (experiment): NCI tumour cell line growth inhibition, 48 h
In assay [1] the test system is SNB-75.
Assay [2] has as its system RXF 393.
The subject of assay [3] is HCC 2998.
Assay [4] relates to U-251.
The subject of assay [5] is MDA-MB-435.
For assay [6], the system named is A549.
For assay [7], the system named is M14.
The test system of assay [8] is SK-MEL-2.
Assay [9] deals with KM12.
Assay [10] has as its system OVCAR-3.
Assay [11] deals with SK-MEL-5.
In assay [12] the test system is ACHN.
The test system of assay [13] is NCI/ADR-RES.
Assay [14] deals with SF-539.
Assay [15] concerns NCI-H226.
In assay [16] the test system is OVCAR-5.
The test system of assay [17] is MDA-MB-231.
Assay [18] relates to HT-29.
Assay [19] has as its system SW-620.
Assay [20] has as its system MOLT-4.

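Protocol summary: plate cells (96-well), add compound at 5 concentrations, incubate 48 h, interpolate endpoints linearly. At the GI50, growth is halved.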 The source made the active and inactive calls. Rule as the data show it: active = GI50 up to about 1.1 µM and inactive = higher.

`CC(=O)ON(C(C)=O)c1ccc(-c2nc3ccccc3s2)cc1`: the GI50 was 24.5 µM (inactive) in assay [1]; 35.3 µM (inactive) in assay [2]; 17.4 µM (inactive) in assay [3]; 24.2 µM (inactive) in assay [4]; 26.9 µM (inactive) in assay [5]; 26.3 µM (inactive) in assay [6]. Moreover, the GI50 was 26.4 µM (inactive) in [7]; 24.8 µM (inactive) in [8]; 15.1 µM (inactive) in [9]; 22.1 µM (inactive) in assay [10]; 24.5 µM (inactive) in [11]; 19.4 µM (inactive) in [12]. The GI50 in [13] was 16.3 µM (inactive); in assay [14], 15.3 µM (inactive); in [15] it was 0.276 µM (active); in assay [16], 34.2 µM (inactive); in assay [17], 25 µM (inactive); in assay [18], 24 µM (inactive). The GI50 is 26.2 µM (inactive) in assay [19] and 13.3 µM (inactive) in assay [20].

As to `CCOC(=O)c1c[nH]c2cc3c(cc2c1=O)CCS3`, the GI50 in assay [1] is > 100 µM (inactive); in [2], 57.8 µM (inactive); in [3] it was > 100 µM (inactive); in assay [4] it was > 100 µM (inactive); in [5], > 100 µM (inactive); in assay [6], > 100 µM (inactive). Further, the GI50 in [7], in [8], in [9], in [10], in assay [11] and in assay [12] was > 100 µM (inactive) throughout. Further, the GI50 in assay [13] is > 100 µM (inactive); in [14] it was > 100 µM (inactive); in assay [15], 50.4 µM (inactive); in [16], > 100 µM (inactive); in assay [17], > 100 µM (inactive); in assay [18], 61.2 µM (inactive). Further, the GI50 in assay [19] and in assay [20] was > 100 µM (inactive) in each case.

`O=C1CCCCC1CN1CCCCC1` (stereo not given): the GI50 in assay [1], in [2], in [3], in [4], in [5] and in assay [6] was > 100 µM (inactive) in each case. Besides, the GI50 in assay [7], in assay [8], in assay [9], in assay [10], in assay [11] and in assay [12] was > 100 µM (inactive) in each case. Also, the GI50 in assay [13], in assay [14], in assay [15], in assay [16], in assay [17] and in [18] was > 100 µM (inactive) throughout. Further, the GI50 in assay [19] and in [20] was > 100 µM (inactive) in each case.

Consider `CCCN(CCc1ccc(-c2ccccc2)cc1)CCc1ccc2nn[nH]c2c1`, for which the GI50 in [1] was 12.3 µM (inactive); in assay [2], 12.2 µM (inactive); in assay [3], 6.71 µM (inactive); in [4] it was 12.9 µM (inactive); in assay [5] it was 8.93 µM (inactive); in [6], 13.1 µM (inactive). The GI50 in assay [7] is 4.28 µM (inactive); in [8], 15.6 µM (inactive); in assay [9] it was 11.9 µM (inactive); in [10], 12.5 µM (inactive); in assay [11], 3.91 µM (inactive); in [12] it was 12.8 µM (inactive). Further, the GI50 was 14.7 µM (inactive) in assay [13]; 10.7 µM (inactive) in [14]; 15.8 µM (inactive) in [15]; 17.1 µM (inactive) in [16]; 13.6 µM (inactive) in [17]; 11.5 µM (inactive) in assay [18]. Further, the GI50 was 10.7 µM (inactive) in [19] and 3.75 µM (inactive) in [20].
